We go through 5 molecules from ChEMBL document CHEMBL1143883, “Fluoroolefins as amide bond mimics in dipeptidyl peptidase IV inhibitors” (Bioorg Med Chem Lett, 2008).

Series [1] is described as follows: Oral bioavailability in rat at 2 mg/kg. The series is classed as ADME, organism-based. The conditions noted are these: in vivo.
A short description of series [2]: Plasma clearance in rat at 1 mg/kg, iv or 2 mg/kg, po. The series is classed as ADME, organism-based.
Series [3] in a line: Metabolic stability in rat hepatocytes after 60 mins. The class given is ADME, cell-based, Hepatocyte. The conditions noted are these: read-out: Stability.
The nature of series [4]: Mean residence time in rat at 1 mg/kg, iv or 2 mg/kg, po. The conditions noted are these: in vivo. The class given is ADME, organism-based.
Series [5] relates to Liver microsomes. In words: Metabolic stability in human liver microsome assessed as covalent binding per mg of protein. The class given is ADME.
Series [6] deals with Liver microsomes. Kind of series: Metabolic stability in rat liver microsome assessed as covalent binding per mg of protein. The class given is ADME. On the technique in general: Liver microsomes are a subcellular fraction often used to study metabolism.
Series [7] is described as follows: Half life in rat at 1 mg/kg, iv or 2 mg/kg, po. The conditions noted are these: in vivo. The class given is ADME, organism-based.
A short description of series [8]: Metabolic stability in rat liver microsomes after 60 mins in presence of NADPH. The series is classed as ADME, Microsome. The following applies: read-out: Stability.
Series [9] addresses Voltage-gated inwardly rectifying potassium channel KCNH2 (Homo sapiens, UniProt Q12809).

Chain of Voltage-gated inwardly rectifying potassium channel KCNH2 (Q12809 whole entry): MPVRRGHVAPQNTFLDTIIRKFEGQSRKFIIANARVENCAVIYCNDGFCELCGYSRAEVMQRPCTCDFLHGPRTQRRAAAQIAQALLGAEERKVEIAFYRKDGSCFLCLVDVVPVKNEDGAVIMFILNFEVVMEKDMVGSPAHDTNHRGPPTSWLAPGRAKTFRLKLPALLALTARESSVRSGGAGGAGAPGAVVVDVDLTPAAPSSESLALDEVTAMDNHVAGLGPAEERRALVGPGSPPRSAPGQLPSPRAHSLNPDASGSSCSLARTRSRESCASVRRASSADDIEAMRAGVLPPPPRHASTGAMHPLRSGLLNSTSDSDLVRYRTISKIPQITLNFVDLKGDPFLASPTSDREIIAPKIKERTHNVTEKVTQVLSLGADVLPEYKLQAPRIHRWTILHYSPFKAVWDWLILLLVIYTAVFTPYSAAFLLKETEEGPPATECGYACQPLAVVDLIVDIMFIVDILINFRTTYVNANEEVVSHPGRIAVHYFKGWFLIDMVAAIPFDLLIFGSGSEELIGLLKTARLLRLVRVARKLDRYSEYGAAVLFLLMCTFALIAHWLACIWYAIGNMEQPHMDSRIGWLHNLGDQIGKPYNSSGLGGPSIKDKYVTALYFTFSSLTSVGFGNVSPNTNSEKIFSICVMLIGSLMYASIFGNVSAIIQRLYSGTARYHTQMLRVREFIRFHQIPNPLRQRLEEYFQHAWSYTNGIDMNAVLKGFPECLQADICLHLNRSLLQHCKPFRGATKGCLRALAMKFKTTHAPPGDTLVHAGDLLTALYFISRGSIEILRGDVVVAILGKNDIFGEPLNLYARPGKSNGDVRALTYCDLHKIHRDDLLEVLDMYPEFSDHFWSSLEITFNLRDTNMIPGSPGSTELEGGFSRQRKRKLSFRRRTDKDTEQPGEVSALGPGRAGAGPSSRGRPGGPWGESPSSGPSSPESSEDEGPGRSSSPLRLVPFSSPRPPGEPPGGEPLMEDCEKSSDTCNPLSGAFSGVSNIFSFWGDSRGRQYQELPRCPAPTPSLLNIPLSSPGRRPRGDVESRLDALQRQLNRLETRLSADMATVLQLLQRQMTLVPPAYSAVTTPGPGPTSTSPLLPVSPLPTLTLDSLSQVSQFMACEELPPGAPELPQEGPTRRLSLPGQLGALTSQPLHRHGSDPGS

Usually bioavailability stands for the share of a dose that reaches the circulation, judged against a reference dose that is usually intravenous. A high value points to much systemic uptake. The MRT is a mean duration of stay, worked out from the concentration-time curve. `CC(c1nc(-c2ccc(S(C)(=O)=O)cc2Cl)no1)[C@H](N)C(F)=C1CCCC1.O=C(O)C(F)(F)F` (stereo partly drawn) displayed a bioavailability in series [1] of 62%. In series [2], the clearance is 20 mL/min/kg. Besides, the remaining at 1 h in [3] was found to be 3%. The molecule also displayed an MRT in series [4] of 2 h.

With `C[C@H](c1nc(-c2ccc(S(=O)(=O)C[14CH3])cc2Cl)no1)[C@H](N)C(F)=C1CCCC1.O=C(O)C(F)(F)F`, the Stability was 287 pmol/mg with Liver microsomes [5] and 662 pmol/mg in the series with Liver microsomes [6].

As a reminder, the half-life is the time in which the quantity being followed falls by half. High values mean slow decline, low ones rapid decline. The molecule `CS(=O)(=O)c1ccc(-c2noc([C@@H](CC3CC3)[C@H](N)C(F)=C3CCCC3)n2)c(Cl)c1.O=C(O)C(F)(F)F` registered a bioavailability in series [1] of 1%. In series [2], this molecule came in with a clearance of 54 mL/min/kg. In [7], the half-life was 1.5 h.

With `C[C@H](c1nc(-c2ccc(S(C)(=O)=O)cc2Cl)no1)[C@H](N)C(=O)N1CCCC1.O=C(O)C(F)(F)F`, the bioavailability in series [1] was 27%. For the same molecule, in [2], the clearance was found to be 6 mL/min/kg. Further, the half-life in [7] was 0.86 h. Besides, the remaining at 1 h was 56% in [8] and 88% in series [3].

The IC50 is the point on the concentration scale where inhibition reaches its midpoint. On to `CS(=O)(=O)c1ccc(-c2noc([C@@H](CCO)[C@H](N)C(F)=C3CCCC3)n2)c(Cl)c1.O=C(O)C(F)(F)F`, for which the bioavailability in [1] worked out at 4%. For the same molecule, the clearance in series [2] came to 51 mL/min/kg. In [7], the half-life was 1.6 h. The same molecule gave an IC50 in series [9] of 47 µM.
